Values joined by “and” are separate entries in the source; they are usually repeats but may differ in a detail not shown here. Equal values may be shown once. Read-outs that look alike come from different tables or passages of the source.
How the values were obtained:
[1] = tested on: subcutaneous EOL-1 tumors; test: EOL-1 human eosinophilic leukemia xenograft model; format: in vivo, SCID mice; settings: for tumor growth inhibition (TGI): Day 19; for median TGI: day 9
Procedure: Female athymic CB-17 SCID (Harlan Sprague-Dawley) mice between 6–7 weeks of age weighing approximately 22 grams were housed in a 12-h light-dark cycle at 70–74°F (21–23°C) and 40–60% humidity. Animals were fed water ad libitum (reverse osmosis, 2 ppm Cl2) and an irradiated standard rodent diet (Teklad 2919) consisting of 19% protein, 9% fat, and 4% fiber. Mice were injected subcutaneously into the right flank with 1x10^7 EOL-1 cells in 100 μl of a 1:1 HBSS:Matrigel solution. When tumors reached approximately 125–250 mm^3, animals were matched by tumor volume and then randomized into treatment and control groups before dosing was initiated. […] Cytarabine, also known as cytosine arabinoside (AraC), was administered by daily ip injection for 5 days only. Agent toxicity was assessed by effects on body weight and clinical signs. Animals were weighed twice weekly using a digital scale (Ohaus SP601). Beginning on Day 0, tumor dimensions were measured twice weekly by digital caliper (Fowler Ultra-Cal IV); tumor volume was calculated using the formula TV = width^2 x length x 0.52. […] Statistical differences in tumor volume were determined using a two-tailed One-Way Analysis of Variance (ANOVA) followed by the Dunnett’s multiple comparisons test comparing treated groups with control. For animal welfare the following methods were used: (a) methods of sacrifice: isoflurane anesthesia followed by cervical dislocation; (b) methods of anesthesia and/or analgesia: isoflurane anesthesia and (c) efforts to alleviate suffering: carprofen if animal veterinarian decides necessary or euthanasia.

[2] = tested on: all five cell lines (Cal51, MDA-MB-468, HCC1954, MCF10A, 184A1); test: Standard 72 h viability assay, breast panel; format: cell-based; settings: Homo sapiens
Procedure: (§1) Solid tumor cell lines were seeded in 100 μl medium into 96-well plates at an appropriate cell number determined by a cell dilution assay (Cal51–2000 cells/well; Colo205, MCF10A and 184A1–3000 cells/well and MDA-MB-468, HCC1954–4000 cells/well). AML suspension cells were seeded in 96-well plates at approximately 3000 cells per well. Cells were incubated overnight at 37°C, 5% CO2. The following day, 100 μl fresh medium containing increasing concentrations of appropriate compound was added and the cells were incubated for up to 72 h at 37°C, 5% CO2. For pulse treatment of solid (adherent) tumor cell lines, medium was aspirated and replaced with fresh drug-free medium. For pulse treatment of suspension lines, plates were centrifuged at 478 xg for 5 min at the end of the incubation period with compound, medium containing compound was carefully aspirated and replaced with fresh compound-free medium. A total of 72 h after the start of treatment, 20 μl of a 10X stock of resazurin sodium salt (Sigma-Aldrich, Dorset, UK) prepared in medium was added to the cells and incubated for up to 3 h. […] was measured on the Wallac Victor plate reader (Cambridge, UK) at 544–595 nm. IC50/70/90 calculations were determined in XLFit.

OCI-AML5 = test: Resazurin reduction cell viability assay; format: cell-based, human
Procedure: as §1

OCI-AML2 = test: Resazurin reduction cell viability assay; format: cell-based, human
Procedure: as §1

MOLM-13 = test: Resazurin reduction cell viability assay; format: cell-based, human
Procedure: as §1

KG-1 = test: Resazurin reduction cell viability assay; format: cell-based, human
Procedure: as §1

A2780 = test: Resazurin reduction cell viability assay; format: cell-based, human; settings: 6 h pulse
Procedure: as §1

Colo205 = test: Resazurin reduction cell viability assay; format: cell-based, human; settings: Homo sapiens, COLO 205, 72 h, 72 h continuous treatment; read-out: Colo205 IC50 ± SD
Procedure: as §1

PC3 = test: Resazurin reduction cell viability assay; format: cell-based, human
Procedure: as §1

CDK2/cyclin A = biological target: T1, CDK2/cyclin A (Homo sapiens, UniProt P24941); test: Carna IC50 determination; format: biochemical; settings: around Km [ATP]
T1 construct: purchased Carna Biosciences
Procedure: (§2) IC50 values were determined from a 10-point concentration curve using ATP concentrations approximating Km values. […] The percentage inhibition of each test solution was calculated, which allowed the IC50 value to be determined from concentration versus percentage inhibition curves by fitting to a four parameter logistic curve.

CLK2 = biological target: T2, CLK2 (Homo sapiens, UniProt P49760); test: Carna IC50 determination; format: biochemical; settings: around Km [ATP]
T2 construct: purchased Carna Biosciences
Procedure: as §2

CDK3/cyclin E1 = biological target: T3, CDK3/cyclin E1 (Homo sapiens, UniProt Q00526); test: Carna IC50 determination; format: biochemical; settings: around Km [ATP]
T3 construct: purchased Carna Biosciences
Procedure: as §2

CLK1 = biological target: T4, CLK1 (Homo sapiens, UniProt P49759); test: Carna IC50 determination; format: biochemical; settings: around Km [ATP]
T4 construct: purchased Carna Biosciences
Procedure: as §2

CDK4/cyclin D3 = biological target: T5, CDK4/cyclin D3 (Homo sapiens, UniProt P11802); test: Carna IC50 determination; format: biochemical; settings: around Km [ATP]
T5 construct: made in house
Procedure: as §2

CDK5/p25 = biological target: T6, CDK5/p25 (Homo sapiens, UniProt Q00535); test: Carna IC50 determination; format: biochemical; settings: around Km [ATP]
T6 construct: purchased Carna Biosciences
Procedure: as §2

[3] = 40 mg/kg oral qd x 5 for 2 weeks
[4] = 55 mg/kg oral qd x 5 for 2 weeks

T3 sequence (Q00526 whole entry): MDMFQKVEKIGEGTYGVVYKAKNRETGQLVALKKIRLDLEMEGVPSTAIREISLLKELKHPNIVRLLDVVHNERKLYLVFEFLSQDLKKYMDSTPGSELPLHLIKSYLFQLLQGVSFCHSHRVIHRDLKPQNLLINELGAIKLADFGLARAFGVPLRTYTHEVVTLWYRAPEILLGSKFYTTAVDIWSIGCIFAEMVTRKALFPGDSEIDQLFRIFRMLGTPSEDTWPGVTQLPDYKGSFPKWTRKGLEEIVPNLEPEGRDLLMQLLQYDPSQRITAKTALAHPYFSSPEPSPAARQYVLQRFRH
T3 sequence (P24864 whole entry partner): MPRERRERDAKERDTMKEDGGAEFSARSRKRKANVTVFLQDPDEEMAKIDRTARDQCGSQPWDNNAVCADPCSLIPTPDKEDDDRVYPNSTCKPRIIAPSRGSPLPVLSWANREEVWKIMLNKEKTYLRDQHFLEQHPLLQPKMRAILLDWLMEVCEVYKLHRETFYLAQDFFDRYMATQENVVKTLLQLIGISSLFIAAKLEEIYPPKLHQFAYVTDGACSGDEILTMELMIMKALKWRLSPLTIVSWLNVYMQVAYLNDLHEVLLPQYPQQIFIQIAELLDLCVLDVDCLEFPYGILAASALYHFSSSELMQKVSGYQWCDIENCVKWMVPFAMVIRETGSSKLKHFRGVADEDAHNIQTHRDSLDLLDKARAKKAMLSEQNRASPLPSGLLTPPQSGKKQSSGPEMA
T4 sequence (P49759 whole entry): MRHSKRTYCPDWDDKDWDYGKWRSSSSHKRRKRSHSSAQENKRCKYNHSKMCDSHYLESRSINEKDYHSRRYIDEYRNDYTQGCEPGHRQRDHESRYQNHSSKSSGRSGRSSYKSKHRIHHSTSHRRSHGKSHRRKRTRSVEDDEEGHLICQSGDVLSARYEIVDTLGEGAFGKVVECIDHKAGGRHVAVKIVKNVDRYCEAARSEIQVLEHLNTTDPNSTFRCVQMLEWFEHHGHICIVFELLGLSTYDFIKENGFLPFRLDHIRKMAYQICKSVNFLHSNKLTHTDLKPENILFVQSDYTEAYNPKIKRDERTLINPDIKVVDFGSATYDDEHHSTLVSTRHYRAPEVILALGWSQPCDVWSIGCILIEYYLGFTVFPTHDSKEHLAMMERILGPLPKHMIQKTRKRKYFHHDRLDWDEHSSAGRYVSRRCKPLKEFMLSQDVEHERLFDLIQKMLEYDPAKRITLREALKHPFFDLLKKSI
T5 sequence (P11802 whole entry): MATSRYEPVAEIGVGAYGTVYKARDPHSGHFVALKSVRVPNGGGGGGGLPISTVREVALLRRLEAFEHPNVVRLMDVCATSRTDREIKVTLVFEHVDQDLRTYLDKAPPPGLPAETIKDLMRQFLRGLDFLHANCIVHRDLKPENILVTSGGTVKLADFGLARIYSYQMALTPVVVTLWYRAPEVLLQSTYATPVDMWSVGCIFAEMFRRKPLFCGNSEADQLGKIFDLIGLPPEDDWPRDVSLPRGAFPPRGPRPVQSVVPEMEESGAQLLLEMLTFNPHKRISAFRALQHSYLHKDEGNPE
T5 sequence (P30281 whole entry partner): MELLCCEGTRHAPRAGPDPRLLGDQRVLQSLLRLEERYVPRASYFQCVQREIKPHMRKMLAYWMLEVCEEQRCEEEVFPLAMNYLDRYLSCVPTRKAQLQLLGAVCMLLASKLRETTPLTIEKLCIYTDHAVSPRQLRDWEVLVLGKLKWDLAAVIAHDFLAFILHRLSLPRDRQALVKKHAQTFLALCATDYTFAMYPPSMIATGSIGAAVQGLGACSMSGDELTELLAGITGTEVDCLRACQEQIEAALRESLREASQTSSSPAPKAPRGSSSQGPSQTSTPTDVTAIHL
T2 sequence (P49760 whole entry): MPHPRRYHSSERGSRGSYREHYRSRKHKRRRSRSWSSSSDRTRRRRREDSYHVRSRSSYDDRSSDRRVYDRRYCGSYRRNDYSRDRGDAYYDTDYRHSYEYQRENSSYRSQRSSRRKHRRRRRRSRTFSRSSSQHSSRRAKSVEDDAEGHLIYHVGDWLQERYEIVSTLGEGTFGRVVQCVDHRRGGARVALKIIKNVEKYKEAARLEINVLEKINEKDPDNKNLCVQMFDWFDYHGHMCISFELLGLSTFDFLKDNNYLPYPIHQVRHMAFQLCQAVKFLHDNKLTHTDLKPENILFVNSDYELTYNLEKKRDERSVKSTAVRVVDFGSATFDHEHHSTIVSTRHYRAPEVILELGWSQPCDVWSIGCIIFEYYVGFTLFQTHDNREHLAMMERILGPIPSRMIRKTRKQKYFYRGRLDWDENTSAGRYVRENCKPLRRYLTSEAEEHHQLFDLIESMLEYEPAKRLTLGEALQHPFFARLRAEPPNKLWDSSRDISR
T6 sequence (Q00535 whole entry): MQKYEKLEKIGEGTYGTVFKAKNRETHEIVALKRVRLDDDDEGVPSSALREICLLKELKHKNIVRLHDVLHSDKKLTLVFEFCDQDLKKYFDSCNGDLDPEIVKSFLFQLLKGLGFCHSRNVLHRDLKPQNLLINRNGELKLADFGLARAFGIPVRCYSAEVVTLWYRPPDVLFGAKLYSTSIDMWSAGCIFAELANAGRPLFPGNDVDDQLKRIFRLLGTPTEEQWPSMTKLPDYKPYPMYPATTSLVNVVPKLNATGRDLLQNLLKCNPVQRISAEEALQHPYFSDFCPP
T6 sequence (Q15078 99-307 partner limits assumed): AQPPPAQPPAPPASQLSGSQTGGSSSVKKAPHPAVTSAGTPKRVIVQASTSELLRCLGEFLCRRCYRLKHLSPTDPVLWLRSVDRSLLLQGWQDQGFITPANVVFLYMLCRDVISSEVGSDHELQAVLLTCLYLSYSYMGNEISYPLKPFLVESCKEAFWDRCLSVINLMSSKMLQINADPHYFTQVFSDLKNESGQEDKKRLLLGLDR

Compound: CC[C@H](Nc1nc(NCc2cnc(C)cc2C)c2ncn(C(C)C)c2n1)[C@@H](C)O [Fadraciclib, 2-pentanol, 3-[[6-[[(4,6-dimethyl-3-pyridinyl)methyl]amino]-9-(1-methylethyl)-9Hpurin-2-yl]amino]-, (2R,3S)]
- tumor growth inhibition (TGI) [1, 3]: 97%
- median TGI [1, 3]: 95%
- transient body weight loss ([1]; 55 mg/kg oral): 2%
- tumor growth inhibition (TGI) [1, 4]: 100%
- median TGI [1, 4]: 97%
- IC50 [2]: ≤ 400 nM
- IC50 (OCI-AML5; Homo sapiens, OCI-AML-5, 72 h, OCI-AML5, 72 h continuous, read-out: 72 h continuous IC50 ± SD): 310 ± 130 nM
- IC90 (OCI-AML5; Homo sapiens, OCI-AML-5, OCI-AML5, 6 h pulse then 66 h release): 18500 nM
- IC50 (OCI-AML5; Homo sapiens, OCI-AML-5, read-out: 6 h pulse IC50 ± SD, OCI-AML5, 6 h pulse then 66 h release): 1440 nM
- IC50 (OCI-AML5; read-out: 6 h pulse IC50 ± SD, OCI-AML5, 6 h pulse then 66 h release): 1450 ± 50 nM
- IC50 (OCI-AML2; Homo sapiens, OCI-AML2, 72 h, OCI-AML2, 72 h continuous, read-out: 72 h continuous IC50 ± SD): 220 ± 30 nM
- IC50 (OCI-AML2; Homo sapiens, OCI-AML2, read-out: 6 h pulse IC50 ± SD, OCI-AML2, 6 h pulse then 66 h release): 530 nM
- IC90 (OCI-AML2; Homo sapiens, OCI-AML2, 6 h pulse then 66 h release): 1800 nM
- IC50 (OCI-AML2; read-out: 6 h pulse IC50 ± SD, OCI-AML2, 6 h pulse then 66 h release): 550 ± 70 nM
- IC50 (MOLM-13; Homo sapiens, MOLM-13, 72 h, MOLM-13, 72 h continuous, read-out: 72 h continuous IC50 ± SD): 240 ± 50 nM
- IC50 (MOLM-13; Homo sapiens, MOLM-13, read-out: 6 h pulse IC50 ± SD, MOLM-13, 6 h pulse then 66 h release): 260 nM
- IC90 (MOLM-13; Homo sapiens, MOLM-13, 6 h pulse then 66 h release): 400 nM
- IC50 (MOLM-13; read-out: 6 h pulse IC50 ± SD, MOLM-13, 6 h pulse then 66 h release): 250 ± 50 nM
- IC50 (KG-1; Homo sapiens, KG-1, 72 h, KG-1, 72 h continuous, read-out: 72 h continuous IC50 ± SD): 350 ± 30 nM
- IC50 (KG-1; Homo sapiens, KG-1, read-out: 6 h pulse IC50 ± SD, KG-1, 6 h pulse then 66 h release): 500 nM
- IC90 (KG-1; Homo sapiens, KG-1, 6 h pulse then 66 h release): 3700 nM
- IC50 (KG-1; read-out: 6 h pulse IC50 ± SD, KG-1, 6 h pulse then 66 h release): 470 ± 120 nM
- IC50, short pulse (A2780): submicromolar
- IC50 (Colo205): 310 nM
- sensitivity, 6 h pulse versus continuous 72 h (PC3): sensitive to fadraciclib only after more prolonged treatment
- IC50 (CDK2/cyclin A): 4.5 ± 0.4 nM
- IC50 (CLK2): 252 ± 8 nM
- IC50 (CDK3/cyclin E1): 29 nM and 28.9 nM
- IC50 (CLK1): 549 ± 81 nM
- IC50 (CDK4/cyclin D3): 232 ± 27 nM
- IC50 (CDK5/p25): 20.5 ± 1 nM

Source: paper PMC7347136 (PLoS ONE, 2020)
